Molecular target: ex-LdtMt2 (LdtMt2; MT2594; product of gene Rv2518c) (Mycobacterium tuberculosis, UniProt O53223)
Test: isothermal titration calorimetry, single-site model
Format: binding

SMILES: C[C@@H](O)[C@H]1C(=O)N2C(C(=O)O)=C(SCCN=CN)C[C@H]12 [imipenem]
- Kd: 54.8 ± 8.8 nM
